Results from the NIST ThermoML archive (doi:10.1021/je700746a).
± gives the expanded uncertainty stated by the source.

Details: 298.15 K; 101.33 kPa; Liquid

**Q.** With `CC(=O)CC(C)C` [4-methylpentan-2-one] as the compound, how does the viscosity read?
**A.** 0.56 ± 0.04 mPa·s
